How the values were obtained:
[1] = molecular target: T1, Activin receptor type-1 (Homo sapiens) (UniProt Q04771); conditions: Compound concentration 1000.0 nM
T1 sequence (whole entry): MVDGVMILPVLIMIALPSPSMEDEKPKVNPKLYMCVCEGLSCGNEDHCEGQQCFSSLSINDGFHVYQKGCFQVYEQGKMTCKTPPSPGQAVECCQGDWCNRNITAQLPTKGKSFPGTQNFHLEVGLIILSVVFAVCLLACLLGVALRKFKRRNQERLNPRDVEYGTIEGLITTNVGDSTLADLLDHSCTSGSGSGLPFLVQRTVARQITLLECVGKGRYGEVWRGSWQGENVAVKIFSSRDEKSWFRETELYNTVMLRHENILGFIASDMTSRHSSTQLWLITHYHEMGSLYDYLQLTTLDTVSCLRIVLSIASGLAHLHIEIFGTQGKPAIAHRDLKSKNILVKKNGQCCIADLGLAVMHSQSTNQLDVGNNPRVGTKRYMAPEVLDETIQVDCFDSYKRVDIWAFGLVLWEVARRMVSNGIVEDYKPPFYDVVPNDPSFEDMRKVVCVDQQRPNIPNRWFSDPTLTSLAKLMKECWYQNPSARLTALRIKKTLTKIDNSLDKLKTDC

[2] = molecular target: Proto-oncogene tyrosine-protein kinase ROS (Homo sapiens) (UniProt P08922); conditions: Compound concentration 1000.0 nM
[3] = molecular target: Misshapen-like kinase 1 (Homo sapiens) (UniProt Q8N4C8); conditions: Compound concentration 1000.0 nM
[4] = molecular target: T2, Serine/threonine-protein kinase TAO2 (Homo sapiens) (UniProt Q9UL54); conditions: Compound concentration 1000.0 nM
T2 sequence (whole entry): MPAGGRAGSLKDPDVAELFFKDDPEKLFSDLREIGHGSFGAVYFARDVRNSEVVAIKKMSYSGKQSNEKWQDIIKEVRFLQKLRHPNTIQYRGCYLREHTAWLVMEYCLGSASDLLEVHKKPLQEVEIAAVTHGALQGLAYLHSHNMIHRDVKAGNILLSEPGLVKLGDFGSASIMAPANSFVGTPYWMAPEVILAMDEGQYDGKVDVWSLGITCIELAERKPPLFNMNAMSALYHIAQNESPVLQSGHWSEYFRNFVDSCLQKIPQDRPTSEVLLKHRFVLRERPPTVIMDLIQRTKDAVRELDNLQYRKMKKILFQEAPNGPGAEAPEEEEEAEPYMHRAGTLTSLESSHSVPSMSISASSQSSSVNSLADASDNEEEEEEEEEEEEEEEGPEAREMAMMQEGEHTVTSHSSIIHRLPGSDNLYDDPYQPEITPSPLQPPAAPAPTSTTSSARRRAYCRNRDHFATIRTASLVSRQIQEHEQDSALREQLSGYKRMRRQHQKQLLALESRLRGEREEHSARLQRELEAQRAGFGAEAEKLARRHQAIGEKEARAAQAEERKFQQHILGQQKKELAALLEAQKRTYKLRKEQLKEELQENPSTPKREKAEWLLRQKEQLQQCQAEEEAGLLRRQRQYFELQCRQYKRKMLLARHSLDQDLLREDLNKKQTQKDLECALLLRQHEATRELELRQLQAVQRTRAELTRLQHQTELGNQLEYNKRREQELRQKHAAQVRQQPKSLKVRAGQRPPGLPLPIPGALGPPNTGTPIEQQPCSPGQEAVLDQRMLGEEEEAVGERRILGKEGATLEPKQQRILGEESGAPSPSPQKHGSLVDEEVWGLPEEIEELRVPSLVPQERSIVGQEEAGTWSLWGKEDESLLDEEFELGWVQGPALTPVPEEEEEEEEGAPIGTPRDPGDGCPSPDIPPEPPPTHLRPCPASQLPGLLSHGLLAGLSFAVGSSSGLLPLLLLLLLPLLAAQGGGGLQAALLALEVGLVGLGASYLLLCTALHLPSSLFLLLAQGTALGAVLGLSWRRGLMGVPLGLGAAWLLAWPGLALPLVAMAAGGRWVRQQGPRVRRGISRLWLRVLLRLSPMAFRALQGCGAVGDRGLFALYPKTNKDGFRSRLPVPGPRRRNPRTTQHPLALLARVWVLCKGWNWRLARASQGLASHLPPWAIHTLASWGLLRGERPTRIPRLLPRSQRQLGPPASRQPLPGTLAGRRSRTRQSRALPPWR

[5] = molecular target: Phosphatidylinositol 4,5-bisphosphate 3-kinase catalytic subunit alpha isoform (Homo sapiens) (UniProt P42336); conditions: Compound concentration 1000.0 nM
[6] = molecular target: Calcium/calmodulin-dependent protein kinase kinase 1 (Homo sapiens) (UniProt Q8N5S9); conditions: Compound concentration 1000.0 nM
[7] = molecular target: SRSF protein kinase 3 (Homo sapiens) (UniProt Q9UPE1); conditions: Compound concentration 1000.0 nM
[8] = molecular target: Mitogen-activated protein kinase kinase kinase 11 (Homo sapiens) (UniProt Q16584); conditions: Compound concentration 1000.0 nM
[9] = molecular target: Cyclin-dependent kinase 11B (Homo sapiens) (UniProt P21127); conditions: Compound concentration 1000.0 nM
[10] = molecular target: Rhodopsin kinase GRK1 (Homo sapiens) (UniProt Q15835); conditions: Compound concentration 1000.0 nM
[11] = molecular target: Fibroblast growth factor receptor 3 (Homo sapiens) (UniProt P22607); conditions: Compound concentration 1000.0 nM
[12] = molecular target: Serine/threonine-protein kinase PLK1 (Homo sapiens) (UniProt P53350); conditions: Compound concentration 1000.0 nM
[13] = molecular target: Tyrosine-protein kinase Blk (Homo sapiens) (UniProt P51451); conditions: Compound concentration 1000.0 nM
[14] = molecular target: T3, D(4) dopamine receptor (Homo sapiens) (UniProt P21917); conditions: Compound concentration 10.0 uM
T3 sequence (whole entry): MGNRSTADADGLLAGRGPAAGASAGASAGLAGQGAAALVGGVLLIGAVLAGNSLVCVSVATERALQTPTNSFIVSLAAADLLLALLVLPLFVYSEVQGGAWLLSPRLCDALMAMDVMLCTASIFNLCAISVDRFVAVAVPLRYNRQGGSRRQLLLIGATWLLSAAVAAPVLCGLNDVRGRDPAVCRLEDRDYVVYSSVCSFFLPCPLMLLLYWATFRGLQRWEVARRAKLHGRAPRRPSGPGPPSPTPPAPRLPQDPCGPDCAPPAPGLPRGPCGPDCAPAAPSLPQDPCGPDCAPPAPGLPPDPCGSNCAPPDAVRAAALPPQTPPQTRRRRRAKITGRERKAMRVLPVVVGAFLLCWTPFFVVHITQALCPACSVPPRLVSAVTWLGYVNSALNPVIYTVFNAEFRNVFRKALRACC

[15] = molecular target: Mitogen-activated protein kinase kinase kinase 20 (Homo sapiens) (UniProt Q9NYL2); conditions: Compound concentration 1000.0 nM
[16] = molecular target: Casein kinase I isoform alpha-like (Homo sapiens) (UniProt Q8N752); conditions: Compound concentration 1000.0 nM

Chain of Misshapen-like kinase 1 (Homo sapiens) (Q8N4C8 whole entry, looked up): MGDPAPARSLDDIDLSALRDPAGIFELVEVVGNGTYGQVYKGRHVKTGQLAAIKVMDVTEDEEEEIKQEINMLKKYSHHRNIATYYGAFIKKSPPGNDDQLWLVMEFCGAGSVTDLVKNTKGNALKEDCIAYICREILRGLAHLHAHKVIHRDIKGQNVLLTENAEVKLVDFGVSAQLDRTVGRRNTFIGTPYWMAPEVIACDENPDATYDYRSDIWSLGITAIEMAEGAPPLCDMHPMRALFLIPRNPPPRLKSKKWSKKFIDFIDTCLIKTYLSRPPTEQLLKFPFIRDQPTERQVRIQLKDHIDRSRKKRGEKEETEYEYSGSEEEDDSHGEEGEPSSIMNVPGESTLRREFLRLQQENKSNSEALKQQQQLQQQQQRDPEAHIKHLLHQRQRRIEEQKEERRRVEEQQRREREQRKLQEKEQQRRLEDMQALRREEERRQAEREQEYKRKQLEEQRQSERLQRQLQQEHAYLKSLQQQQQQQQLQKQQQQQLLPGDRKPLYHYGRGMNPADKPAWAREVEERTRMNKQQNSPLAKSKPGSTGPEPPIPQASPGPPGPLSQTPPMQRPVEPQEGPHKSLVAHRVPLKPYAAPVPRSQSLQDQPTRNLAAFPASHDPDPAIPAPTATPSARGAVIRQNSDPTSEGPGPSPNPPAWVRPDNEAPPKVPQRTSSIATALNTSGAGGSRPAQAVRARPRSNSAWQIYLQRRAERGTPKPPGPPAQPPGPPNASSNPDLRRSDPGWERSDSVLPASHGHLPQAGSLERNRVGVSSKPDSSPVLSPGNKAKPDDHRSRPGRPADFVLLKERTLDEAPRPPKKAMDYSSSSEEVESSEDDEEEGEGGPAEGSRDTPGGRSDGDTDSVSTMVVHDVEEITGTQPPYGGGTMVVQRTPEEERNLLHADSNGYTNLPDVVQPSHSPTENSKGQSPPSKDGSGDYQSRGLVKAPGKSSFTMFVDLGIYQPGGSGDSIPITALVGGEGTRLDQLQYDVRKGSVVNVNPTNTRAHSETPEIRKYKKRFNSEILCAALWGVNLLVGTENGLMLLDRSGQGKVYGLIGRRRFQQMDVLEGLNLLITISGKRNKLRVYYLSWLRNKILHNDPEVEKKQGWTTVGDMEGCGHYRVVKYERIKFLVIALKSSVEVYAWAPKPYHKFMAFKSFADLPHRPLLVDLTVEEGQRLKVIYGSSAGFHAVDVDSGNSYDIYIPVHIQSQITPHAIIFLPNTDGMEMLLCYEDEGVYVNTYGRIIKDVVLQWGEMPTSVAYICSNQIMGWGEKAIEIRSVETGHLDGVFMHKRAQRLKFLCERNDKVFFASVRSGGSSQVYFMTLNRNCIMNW
Chain of Phosphatidylinositol 4,5-bisphosphate 3-kinase catalytic subunit alpha isoform (Homo sapiens) (P42336 whole entry, canonical isoform): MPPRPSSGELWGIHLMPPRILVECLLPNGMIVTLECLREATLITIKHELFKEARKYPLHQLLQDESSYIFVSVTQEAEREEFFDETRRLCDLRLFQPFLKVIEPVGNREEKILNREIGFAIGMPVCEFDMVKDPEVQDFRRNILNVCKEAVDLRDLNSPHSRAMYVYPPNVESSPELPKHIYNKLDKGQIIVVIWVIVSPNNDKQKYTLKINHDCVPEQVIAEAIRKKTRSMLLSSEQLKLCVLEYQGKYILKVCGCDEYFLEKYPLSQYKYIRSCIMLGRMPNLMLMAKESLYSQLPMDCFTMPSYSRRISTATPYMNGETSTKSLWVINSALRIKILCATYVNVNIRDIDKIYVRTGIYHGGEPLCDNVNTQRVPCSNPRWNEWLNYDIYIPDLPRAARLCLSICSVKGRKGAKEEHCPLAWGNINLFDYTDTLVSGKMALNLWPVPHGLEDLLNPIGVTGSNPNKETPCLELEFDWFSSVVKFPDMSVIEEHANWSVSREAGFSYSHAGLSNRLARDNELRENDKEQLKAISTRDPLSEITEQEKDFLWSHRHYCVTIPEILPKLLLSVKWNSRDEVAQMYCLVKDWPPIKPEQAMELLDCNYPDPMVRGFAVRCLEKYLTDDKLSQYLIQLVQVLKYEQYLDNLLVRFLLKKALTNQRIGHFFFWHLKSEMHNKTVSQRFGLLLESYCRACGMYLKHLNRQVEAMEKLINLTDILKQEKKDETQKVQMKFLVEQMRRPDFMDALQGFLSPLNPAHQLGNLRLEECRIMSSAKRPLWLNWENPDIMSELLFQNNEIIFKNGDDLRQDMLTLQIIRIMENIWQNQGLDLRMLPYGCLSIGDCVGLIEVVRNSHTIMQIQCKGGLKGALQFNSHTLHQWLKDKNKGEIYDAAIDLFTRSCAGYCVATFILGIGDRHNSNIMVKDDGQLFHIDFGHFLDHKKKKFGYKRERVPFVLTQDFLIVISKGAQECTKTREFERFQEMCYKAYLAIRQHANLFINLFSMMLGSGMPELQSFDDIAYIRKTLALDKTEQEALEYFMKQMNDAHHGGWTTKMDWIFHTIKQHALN
Chain of Mitogen-activated protein kinase kinase kinase 20 (Homo sapiens) (Q9NYL2 2-800 limits assumed): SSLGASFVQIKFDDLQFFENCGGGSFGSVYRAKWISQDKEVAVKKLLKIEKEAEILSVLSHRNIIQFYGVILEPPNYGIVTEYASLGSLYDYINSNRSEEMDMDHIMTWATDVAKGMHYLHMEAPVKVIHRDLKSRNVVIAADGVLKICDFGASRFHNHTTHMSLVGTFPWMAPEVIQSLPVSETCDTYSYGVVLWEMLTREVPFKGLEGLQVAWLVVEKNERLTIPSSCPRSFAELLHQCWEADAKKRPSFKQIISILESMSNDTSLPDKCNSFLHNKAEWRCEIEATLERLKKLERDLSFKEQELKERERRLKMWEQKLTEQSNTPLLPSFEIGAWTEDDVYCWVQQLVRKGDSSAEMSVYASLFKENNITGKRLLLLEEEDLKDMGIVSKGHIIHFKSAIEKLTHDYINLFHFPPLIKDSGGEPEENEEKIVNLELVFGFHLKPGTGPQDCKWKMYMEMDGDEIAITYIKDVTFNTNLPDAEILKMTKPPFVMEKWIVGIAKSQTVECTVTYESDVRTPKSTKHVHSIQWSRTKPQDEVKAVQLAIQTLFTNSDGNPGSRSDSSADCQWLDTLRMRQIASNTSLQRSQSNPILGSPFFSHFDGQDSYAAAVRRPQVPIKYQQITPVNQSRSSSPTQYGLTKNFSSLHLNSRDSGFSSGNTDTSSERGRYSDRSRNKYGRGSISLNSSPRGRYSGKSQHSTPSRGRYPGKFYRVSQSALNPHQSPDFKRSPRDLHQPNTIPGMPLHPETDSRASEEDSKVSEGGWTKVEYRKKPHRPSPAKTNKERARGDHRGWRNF
Chain of Serine/threonine-protein kinase PLK1 (Homo sapiens) (P53350 whole entry): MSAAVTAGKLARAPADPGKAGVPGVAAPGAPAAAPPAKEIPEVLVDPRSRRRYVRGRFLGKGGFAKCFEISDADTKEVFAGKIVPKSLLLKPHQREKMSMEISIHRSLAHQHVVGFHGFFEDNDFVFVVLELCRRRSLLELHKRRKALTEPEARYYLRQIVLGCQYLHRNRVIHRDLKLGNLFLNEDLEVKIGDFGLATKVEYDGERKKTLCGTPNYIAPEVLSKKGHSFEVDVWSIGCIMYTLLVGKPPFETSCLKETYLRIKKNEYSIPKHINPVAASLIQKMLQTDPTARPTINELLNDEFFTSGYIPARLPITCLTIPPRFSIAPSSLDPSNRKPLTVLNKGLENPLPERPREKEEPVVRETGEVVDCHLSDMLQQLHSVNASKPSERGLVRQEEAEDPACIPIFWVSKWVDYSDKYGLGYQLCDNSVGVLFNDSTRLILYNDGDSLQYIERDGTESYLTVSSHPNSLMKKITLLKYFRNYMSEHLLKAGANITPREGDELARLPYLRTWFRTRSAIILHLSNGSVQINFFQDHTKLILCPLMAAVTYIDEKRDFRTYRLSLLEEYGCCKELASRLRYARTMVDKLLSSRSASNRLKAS
Chain of Tyrosine-protein kinase Blk (Homo sapiens) (P51451 2-505 limits assumed): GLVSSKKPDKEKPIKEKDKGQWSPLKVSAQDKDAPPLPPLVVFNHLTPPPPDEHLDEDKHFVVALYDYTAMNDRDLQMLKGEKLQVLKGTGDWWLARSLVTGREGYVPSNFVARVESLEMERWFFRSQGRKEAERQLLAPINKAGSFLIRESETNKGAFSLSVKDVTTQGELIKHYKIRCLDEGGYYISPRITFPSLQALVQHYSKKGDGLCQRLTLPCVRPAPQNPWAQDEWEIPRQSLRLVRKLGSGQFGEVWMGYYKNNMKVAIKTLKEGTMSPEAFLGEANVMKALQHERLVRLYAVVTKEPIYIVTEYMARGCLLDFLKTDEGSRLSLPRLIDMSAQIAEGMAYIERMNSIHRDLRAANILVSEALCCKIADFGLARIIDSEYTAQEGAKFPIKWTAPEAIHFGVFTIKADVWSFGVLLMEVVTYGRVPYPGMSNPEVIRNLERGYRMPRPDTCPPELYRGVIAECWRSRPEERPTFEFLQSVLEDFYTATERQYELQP
Chain of Cyclin-dependent kinase 11B (Homo sapiens) (P21127 whole entry): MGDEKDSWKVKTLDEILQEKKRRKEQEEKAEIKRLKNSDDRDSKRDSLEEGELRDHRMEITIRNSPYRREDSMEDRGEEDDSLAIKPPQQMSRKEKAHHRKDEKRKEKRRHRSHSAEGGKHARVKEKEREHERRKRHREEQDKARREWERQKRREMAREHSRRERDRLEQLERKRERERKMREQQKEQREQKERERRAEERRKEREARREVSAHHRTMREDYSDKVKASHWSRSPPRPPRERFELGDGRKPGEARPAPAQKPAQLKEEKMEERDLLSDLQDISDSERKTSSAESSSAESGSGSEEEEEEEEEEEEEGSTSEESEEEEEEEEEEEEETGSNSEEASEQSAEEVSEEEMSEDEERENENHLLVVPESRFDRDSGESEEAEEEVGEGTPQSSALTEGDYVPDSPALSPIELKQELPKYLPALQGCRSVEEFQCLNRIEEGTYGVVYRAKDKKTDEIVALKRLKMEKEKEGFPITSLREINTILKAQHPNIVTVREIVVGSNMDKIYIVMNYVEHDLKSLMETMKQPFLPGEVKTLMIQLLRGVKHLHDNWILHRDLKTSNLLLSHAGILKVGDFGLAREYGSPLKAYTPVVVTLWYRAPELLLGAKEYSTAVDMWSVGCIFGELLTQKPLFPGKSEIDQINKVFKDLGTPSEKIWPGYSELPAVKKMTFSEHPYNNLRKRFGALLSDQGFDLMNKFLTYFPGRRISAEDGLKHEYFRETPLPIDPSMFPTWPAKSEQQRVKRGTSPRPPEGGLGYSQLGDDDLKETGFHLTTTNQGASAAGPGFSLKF

CN(C)C(=O)Cn1cc(-c2nc(C3(c4ccc(-c5cnc(N)nc5)cc4)CC3)no2)cn1 [BI 0153]
inactive: residual activity [1] 95% | residual activity [2] 87% | residual activity [3] 91% | residual activity [4] 100% | residual activity [5] 76% | residual activity [6] 100% | residual activity [7] 100% | residual activity [8] 87% | residual activity [9] 96% | residual activity [10] 74% | residual activity [11] 100% | residual activity [12] 82% | residual activity [13] 83% | inhibition [14] 1.18% | residual activity [15] 92% | residual activity [16] 98%

CN(C)C(=O)Cn1cc(-c2nc([C@@](C)(c3ccc(-c4cnc(N)nc4)cc3)C3CC3)no2)cn1 [BI 665915]
inactive: residual activity [1] 84% | residual activity [2] 88% | residual activity [3] 85% | residual activity [4] 81% | residual activity [5] 96% | residual activity [6] 100% | residual activity [7] 85% | residual activity [8] 77% | residual activity [9] 79% | residual activity [10] 100% | residual activity [11] 94% | residual activity [12] 77% | residual activity [13] 98% | inhibition [14] 1.48% | residual activity [15] 80% | residual activity [16] 100%

From ChEMBL document CHEMBL4507276 (2021)
